Experimental findings from patent publication US9163007B2, “5-substituted indazoles as kinase inhibitors” (AbbVie Inc., priority 2007, dated 2015) are described below.

Assay [1] deals with phospho-MCM2 Ser53 in HCT-116 cells. The assay can be described thus: Phospho-MCM2 ELISA. The assay is classed as cell-based. Particulars: Homo sapiens, treated 6 hours. The procedure: HCT-116 cells (20,000/well; 96-well format) were treated for 6 hours with increasing concentrations of compounds (0.01-10 μM in half-log increments). After removing the medium/inhibitor, the cells were frozen for 5 minutes and treated on ice with 20 μL of lysis buffer (Invitrogen #FNN0011) for 30 minutes. 80 μL of cold 2% BSA (in PBS) were then added to each well before transferring 80 μL to MCM2 antibody-coated plates (Bethyl #A300-122A, lot A300-122A-1). The plates were incubated overnight at 4° C., washed, and then incubated with the sandwich antibody (1:100 rabbit anti-human phospho-MCM2 Ser53; Bethyl #A300-756A, lot A300-756A-2) for 2 hours at room temperature. After another series of washes the samples are incubated for 1 hour with detection antibody (XSA-grade goat anti-rabbit-HRP, KPL #074-15-061, lot 50884, diluted to 2 μg/mL in 2% BSA). Plates were washed, developed using luminescence substrate (SuperSignal Pico for ELISA, Pierce #37069, Lot. HB101408), and read on a Molecular Devices M5 luminometer.
(ELISA stands for enzyme-linked immunosorbent assay.)

For another assay, the system named is HCT-116 cells. The assay can be described thus: AlamarBlue Cell Viability Assays. The assay is classed as cell-based. Particulars: Homo sapiens, treated 72 hours. The procedure:
AlamarBlue Cell Viability Assays
HCT-116 cells (3,000/well; 96-well format) were treated for 72 hours with increasing concentrations of compounds (0.01-30 μM in half-log increments). The cells were then incubated in fresh media with 10% AlamarBlue reagent (Invitrogen #DAL1100). AlamarBlue reactions were incubated according to the manufacturer's instructions (approximately 4 hours) and then analyzed using an fmax fluorescence microplate reader (Molecular Devices) using excitation/emission wavelengths of 544/595 nm. Data were analyzed using SOFTmax PRO software provided by the manufacturer.
Background: Resazurin is reduced to fluorescent resorufin, in cell work by metabolically active cells.

In the next assay the target is Cdc7/Dbf4 (Homo sapiens (Human), UniProt O00311). The assay can be described thus: Cdc7 Inhibition Assay.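 Also: reaction mixtures incubated 30 min on streptavidin-coated plates, then quantified by scintillation counting, with inhibition curves fitted by non-linear regression.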 The assay is classed as biochemical. Conditions: 11 data point; read-out: Ki (μM) 11 data point.
Chain of Cdc7/Dbf4 (O00311 whole entry): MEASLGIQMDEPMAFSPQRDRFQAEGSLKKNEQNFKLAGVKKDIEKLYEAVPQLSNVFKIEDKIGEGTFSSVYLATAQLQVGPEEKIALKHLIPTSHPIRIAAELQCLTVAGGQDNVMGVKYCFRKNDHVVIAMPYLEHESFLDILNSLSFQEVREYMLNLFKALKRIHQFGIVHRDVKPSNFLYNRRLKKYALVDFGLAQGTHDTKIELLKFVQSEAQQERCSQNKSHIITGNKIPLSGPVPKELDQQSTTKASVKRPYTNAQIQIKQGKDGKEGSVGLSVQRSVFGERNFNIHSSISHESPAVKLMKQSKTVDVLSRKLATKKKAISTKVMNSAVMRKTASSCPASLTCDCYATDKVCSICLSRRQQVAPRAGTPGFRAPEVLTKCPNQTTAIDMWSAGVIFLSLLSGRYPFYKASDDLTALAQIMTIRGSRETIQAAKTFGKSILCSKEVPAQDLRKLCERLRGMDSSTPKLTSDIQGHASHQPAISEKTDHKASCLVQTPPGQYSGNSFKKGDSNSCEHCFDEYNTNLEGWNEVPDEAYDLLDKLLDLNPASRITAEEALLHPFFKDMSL
Chain of Cdc7/Dbf4 (Q9UBU7 whole entry partner): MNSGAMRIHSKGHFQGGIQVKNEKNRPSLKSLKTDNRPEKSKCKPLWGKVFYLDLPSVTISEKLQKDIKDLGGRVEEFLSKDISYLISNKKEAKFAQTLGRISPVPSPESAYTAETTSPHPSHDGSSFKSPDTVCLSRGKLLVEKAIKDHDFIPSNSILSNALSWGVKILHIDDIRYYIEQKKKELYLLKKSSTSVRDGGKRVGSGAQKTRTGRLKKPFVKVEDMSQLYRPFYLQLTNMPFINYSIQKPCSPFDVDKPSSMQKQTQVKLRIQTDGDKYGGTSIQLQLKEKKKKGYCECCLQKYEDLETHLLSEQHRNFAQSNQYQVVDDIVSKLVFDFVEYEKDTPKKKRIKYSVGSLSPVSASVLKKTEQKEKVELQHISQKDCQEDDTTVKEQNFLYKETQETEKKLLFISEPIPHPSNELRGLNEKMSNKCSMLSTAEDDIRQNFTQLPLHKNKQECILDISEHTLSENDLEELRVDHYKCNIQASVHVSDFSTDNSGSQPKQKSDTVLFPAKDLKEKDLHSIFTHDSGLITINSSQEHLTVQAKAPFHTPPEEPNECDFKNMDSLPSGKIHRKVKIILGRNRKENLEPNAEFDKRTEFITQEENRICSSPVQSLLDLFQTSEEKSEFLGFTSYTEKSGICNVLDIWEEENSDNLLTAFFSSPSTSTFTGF

Method for Cdc7/Dbf4: The reactions were incubated for 30 minutes on streptavidin-coated plates, washed, and quantified using a TopCount scintillation plate reader (Packard). IC50 values are determined via non-linear regression fitting of the data.

On to `O=C(Nc1n[nH]c2ccc(-c3cn(Cc4ccccc4)nn3)cc12)c1cccc(F)c1` [Example 395, N-[5-(1-benzyl-1H-1,2,3-triazol-4-yl)-1H-indazol-3-yl]-3-fluorobenzamide], for which the EC50 (as a rule, the concentration needed to bring the measured effect to its halfway point) in assay [1] was 2.99 µM; in the assay on HCT-116 cells, 0.315 µM.
Turning to `CN(C)c1ccc(-c2c(-c3ccc4[nH]nc(N)c4c3)nnn2Cc2ccccc2)cc1` [Example 185, 5-{1-benzyl-5-[4-(dimethylamino)phenyl]-1H-1,2,3-triazol-4-yl}-1H-indazol-3-amine], the inhibition constant Ki (usually a measure of affinity in units of concentration, obtained from inhibition or displacement) on Cdc7/Dbf4 worked out at 0.0004 µM. Moreover, the concentration for a half-maximal effect (EC50) was 5.47 µM in assay [1] and 22.6 µM with HCT-116 cells.
Regarding `O=C(Nc1n[nH]c2ccc(-c3nnn(Cc4ccccc4)c3C3CC3)cc12)c1cccc(Cl)c1` [Example 224, N-[5-(1-benzyl-5-cyclopropyl-1H-1,2,3-triazol-4-yl)-1H-indazol-3-yl]-3-chlorobenzamide], the concentration giving a half-maximal response (EC50) in assay [1] is over 10 µM; in the assay on HCT-116 cells it was 2.42 µM.
Turning to `Nc1n[nH]c2ccc(-c3cn(Cc4ccccc4)nn3)cc12` [Example 62, 5-(1-benzyl-1H-1,2,3-triazol-4-yl)-1H-indazol-3-amine], the values for the EC50 (in assay [1]; in the assay on HCT-116 cells) were over 10 µM and 4.54 µM, respectively.
Turning to `Nc1n[nH]c2ccc(-c3nnn(Cc4ccccc4)c3-c3ccccc3)cc12` [Example 102, 5-(1-benzyl-5-phenyl-1H-1,2,3-triazol-4-yl)-1H-indazol-3-amine], the EC50 in assay [1] worked out at 3.13 µM; in the assay on HCT-116 cells it was 3.19 µM.
Regarding `O=C(Nc1n[nH]c2ccc(-c3cn(Cc4ccccc4)nn3)cc12)c1ccccc1` [Example 73, N-[5-(1-benzyl-1H-1,2,3-triazol-4-yl)-1H-indazol-3-yl]benzamide], the EC50 is 1.97 µM in assay [1] and 0.76 µM in the assay with HCT-116 cells.
For `Cc1ccccc1-c1c(-c2ccc3[nH]nc(N)c3c2)nnn1Cc1ccccc1` [Example 163, 5-[1-benzyl-5-(2-methylphenyl)-1H-1,2,3-triazol-4-yl]-1H-indazol-3-amine] the same measures were 9.43 µM and 0.928 µM.
Consider `COc1ccc(NC(=O)Nc2n[nH]c3ccc(-c4nnn(Cc5ccccc5)c4-c4ccccc4)cc23)cc1` [Example 200, N-[5-(1-benzyl-5-phenyl-1H-1,2,3-triazol-4-yl)-1H-indazol-3-yl]-N′-(4-methoxyphenyl)urea], for which the Ki at Cdc7/Dbf4 is 0.013 µM. For the same compound, the midpoint of the response in the assay on HCT-116 cells, the EC50, lay at 13.5 µM.
Turning to `Cc1n[nH]c2ccc(-c3nnn(Cc4ccccc4)c3-c3ccc(F)cc3)cc12` [Example 408, 5-[1-benzyl-5-(4-fluorophenyl)-1H-1,2,3-triazol-4-yl]-3-methyl-1H-indazole], the concentration giving a half-maximal response (EC50) in assay [1] was 1.96 µM; in the assay on HCT-116 cells, over 30 µM.
With `Nc1n[nH]c2ccc(-c3nnn(Cc4ccccc4)c3C3CCCCC3)cc12` [Example 402, 5-(1-benzyl-5-cyclohexyl-1H-1,2,3-triazol-4-yl)-1H-indazol-3-amine], at Cdc7/Dbf4, the inhibition constant Ki was determined as 0.037 µM. For the same compound, in the assay with HCT-116 cells, the concentration for a half-maximal effect (EC50) stood at 0.037 µM.
As to `Cc1c(-c2ccc3[nH]nc(N)c3c2)nnn1Cc1ccccc1` [Example 123, 5-(1-benzyl-5-methyl-1H-1,2,3-triazol-4-yl)-1H-indazol-3-amine], the concentration giving a half-maximal response (EC50) in assay [1] was over 10 µM; in the assay on HCT-116 cells, 3.86 µM.
For the compound `Nc1n[nH]c2ccc(-c3nnn(Cc4ccccc4)c3-c3ccc(F)cc3)cc12` [Example 151, 5-[1-benzyl-5-(4-fluorophenyl)-1H-1,2,3-triazol-4-yl]-1H-indazol-3-amine], the values for the EC50 (in assay [1]; in the assay with HCT-116 cells) were 3.76 µM and 8.64 µM, respectively.
`CCS(=O)(=O)Nc1n[nH]c2ccc(-c3nnn(Cc4ccccc4)c3C3CC3)cc12` [Example 216, N-[5-(1-benzyl-5-cyclopropyl-1H-1,2,3-triazol-4-yl)-1H-indazol-3-yl]ethanesulfonamide]: on Cdc7/Dbf4, the Ki turned out to be 0.12 µM. A half-maximal effect in the assay on HCT-116 cells (EC50) was put at 19.1 µM.
As to `COC(=O)c1n[nH]c2ccc(-c3cn(Cc4ccccc4)nn3)cc12` [Example 397, methyl 5-(1-benzyl-1H-1,2,3-triazol-4-yl)-1H-indazole-3-carboxylate], at Cdc7/Dbf4, the inhibition constant Ki came to 0.0811 µM. In addition, the midpoint of the response in the assay with HCT-116 cells, the EC50, lay at 24.8 µM.
